Measured values as given in the supplement of paper PMC6045584.
± gives the standard deviation of the averaged measurements.

Tests used:
SORAFENIB = compound: CNC(=O)c1cc(Oc2ccc(NC(=O)Nc3ccc(Cl)c(C(F)(F)F)c3)cc2)ccn1 [SORAFENIB]; assay: surviving fraction relative to DMSO-only wells; higher = less growth inhibition; conditions: exposure time: 5 days
How it was run: (§1)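 Five days of continuous inhibitor exposure, at 0.5, 1, 5, 10, 50, 100, 500 and 1000 nM, followed a 24-hour period after log-phase tumour cell lines were seeded at 250–500 cells per well in 384-well plates. Surviving fraction was derived from CellTiter-Glo luminescence relative to the median of DMSO-only wells. Plates were read after 10 minutes at room temperature, and lines screened three times were kept only if replicate Pearson r >0.7 and median Z' >0.3.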

OLAPARIB = compound: O=C(c1cc(Cc2n[nH]c(=O)c3ccccc23)ccc1F)N1CCN(C(=O)C2CC2)CC1 [OLAPARIB]; assay: as above; conditions: exposure time: 5 days
How it was run: as §1

Test System | surviving fraction (SORAFENIB; 0.5 nM) | surviving fraction (SORAFENIB; 1 nM) | surviving fraction (SORAFENIB; 5 nM) | surviving fraction (SORAFENIB; 50 nM) | surviving fraction (SORAFENIB; 100 nM) | surviving fraction (SORAFENIB; 500 nM) | surviving fraction (SORAFENIB; 1000 nM) | surviving fraction (OLAPARIB; 0.5 nM) | surviving fraction (OLAPARIB; 1 nM) | surviving fraction (OLAPARIB; 5 nM) | surviving fraction (OLAPARIB; 10 nM) | surviving fraction (OLAPARIB; 50 nM) | surviving fraction (OLAPARIB; 100 nM) | surviving fraction (OLAPARIB; 500 nM) | surviving fraction (OLAPARIB; 1000 nM) | surviving fraction (SORAFENIB; 10 nM)
CAL120 BREAST | 0.959 ± 0.026 | 0.9315 ± 0.0074 | 0.931 ± 0.025 | 1.02 ± 0.014 | 1.01 ± 0.038 | 0.973 ± 0.023 | 0.942 ± 0.032 | 0.9857 ± 0.0086 | 0.998 ± 0.018 | 1 ± 0.023 | 0.973 ± 0.024 | 0.979 ± 0.01 | 0.942 ± 0.04 | 0.892 ± 0.013 | 0.825 ± 0.043 | 
SUM149.B1*.S BREAST | 1.1 ± 0.025 | 1.051 ± 0.004 | 1.08 ± 0.05 |  | 1.202 ± 0.0063 | 0.807 ± 0.024 | 0.609 ± 0.04 | 1.092 ± 0.0038 | 1.09 ± 0.094 | 1.08 ± 0.031 | 1.05 ± 0.022 | 1.03 ± 0.015 | 0.962 ± 0.035 | 1.04 ± 0.011 | 0.911 ± 0.04 | 1.05 ± 0.033
JURKAT HAEMATOPOIETIC AND LYMPHOID TISSUE | 1.106 ± 0.0035 | 1.1 ± 0.026 | 1.11 ± 0.039 | 1.08 ± 0.023 | 1.06 ± 0.029 |  | 0.863 ± 0.012 | 1.1 ± 0.022 | 1.12 ± 0.03 | 1.08 ± 0.03 | 1.07 ± 0.014 | 1.038 ± 0.0047 | 0.994 ± 0.024 | 1 ± 0.019 | 0.847 ± 0.029 | 1.11 ± 0.037
YAMATO SYNOVIAL | 1.26 ± 0.054 | 1.24 ± 0.066 | 1.37 ± 0.096 | 1.44 ± 0.096 | 1.35 ± 0.05 | 1.18 ± 0.088 | 1.04 ± 0.056 | 1.38 ± 0.12 | 1.4 ± 0.08 | 1.49 ± 0.062 | 1.37 ± 0.11 | 0.894 ± 0.084 | 0.871 ± 0.092 | 0.819 ± 0.02 | 0.738 ± 0.044 | 1.26 ± 0.078
MG63 BONE | 0.996 ± 0.025 | 1 ± 0.018 | 1.044 ± 0.01 | 1.13 ± 0.014 | 1.13 ± 0.031 | 1.1 ± 0.025 | 1.12 ± 0.012 | 1.03 ± 0.034 | 1.061 ± 0.0049 | 1.06 ± 0.031 | 1.06 ± 0.033 | 1.023 ± 0.001 | 1.024 ± 0.01 | 0.939 ± 0.027 | 0.879 ± 0.019 | 1.015 ± 0.0067
COLO320DM LARGE INTESTINE | 1.13 ± 0.042 | 1.06 ± 0.04 | 1.15 ± 0.029 | 1.21 ± 0.14 | 1.11 ± 0.013 | 1.18 ± 0.2 | 0.968 ± 0.074 | 1.13 ± 0.19 | 0.997 ± 0.15 | 1.09 ± 0.046 | 1.03 ± 0.21 | 1.07 ± 0.091 | 1.03 ± 0.082 | 1.06 ± 0.048 | 0.991 ± 0.03 | 1.07 ± 0.075
CADOES1 SOFT TISSUE | 1.02 ± 0.062 |  | 0.862 ± 0.035 | 0.972 ± 0.15 | 0.947 ± 0.1 |  | 0.603 ± 0.19 | 1.01 ± 0.059 | 0.855 ± 0.072 | 1.03 ± 0.07 | 0.8393 ± 0.0035 | 0.951 ± 0.046 | 0.953 ± 0.076 | 0.895 ± 0.084 | 0.81 ± 0.14 | 
SG27 HEADNECK | 1.04 ± 0.056 | 1.01 ± 0.059 | 1.18 ± 0.041 | 1.03 ± 0.04 | 1.22 ± 0.1 | 1.27 ± 0.045 | 1.3 ± 0.051 | 1 ± 0.049 | 1.05 ± 0.14 | 0.969 ± 0.093 | 0.991 ± 0.1 | 0.916 ± 0.074 | 0.995 ± 0.092 | 0.981 ± 0.22 | 1.02 ± 0.11 | 1.13 ± 0.074
MHM BONE | 0.977 ± 0.025 | 1.01 ± 0.024 |  | 1.071 ± 0.0061 | 1.08 ± 0.024 | 1.1 ± 0.034 |  | 1.001 ± 0.0057 | 1.02 ± 0.014 | 1.04 ± 0.022 | 1.02 ± 0.021 | 1.1 ± 0.018 | 1.052 ± 0.0081 | 1.04 ± 0.018 | 1.02 ± 0.028 | 1.06 ± 0.051
SCC36 HEADNECK |  | 1.02 ± 0.064 | 1.15 ± 0.11 | 1.18 ± 0.16 | 1.17 ± 0.056 | 1.2 ± 0.049 | 1.18 ± 0.065 | 1 ± 0.045 | 0.993 ± 0.12 | 1.06 ± 0.018 | 0.948 ± 0.12 | 0.837 ± 0.1 | 0.697 ± 0.027 | 0.705 ± 0.066 | 0.596 ± 0.066 | 1.18 ± 0.018
MDAMB453 BREAST | 1.08 ± 0.064 |  | 1.11 ± 0.074 | 1.12 ± 0.056 | 1.12 ± 0.091 |  | 1.04 ± 0.047 | 0.989 ± 0.063 | 1 ± 0.036 | 0.989 ± 0.07 | 0.964 ± 0.059 | 0.966 ± 0.042 | 0.936 ± 0.018 | 1.03 ± 0.025 | 0.916 ± 0.025 | 1.09 ± 0.011
HCC1806 BREAST | 0.985 ± 0.032 | 0.78 ± 0.45 | 1.03 ± 0.059 | 1.14 ± 0.099 | 1.05 ± 0.14 | 1 ± 0.11 | 0.888 ± 0.081 | 0.945 ± 0.059 | 1.01 ± 0.063 | 1.05 ± 0.099 | 0.984 ± 0.068 | 0.896 ± 0.12 | 0.74 ± 0.041 | 0.582 ± 0.065 | 0.567 ± 0.066 | 0.771 ± 0.66
HOSMNG BONE | 0.994 ± 0.086 | 0.975 ± 0.14 | 0.943 ± 0.092 | 1.06 ± 0.11 | 1.05 ± 0.16 | 1.1 ± 0.049 | 1.06 ± 0.15 | 0.877 ± 0.088 | 0.991 ± 0.034 | 0.964 ± 0.043 | 0.933 ± 0.049 | 1.02 ± 0.056 | 1.05 ± 0.03 | 1.06 ± 0.021 | 0.925 ± 0.14 | 1 ± 0.14
SG32 HEADNECK | 1.2 ± 0.15 | 1.47 ± 0.68 | 1.33 ± 0.044 | 1.76 ± 0.68 | 1.62 ± 0.26 | 1.53 ± 0.35 | 1.56 ± 0.36 | 1.23 ± 0.41 | 1.43 ± 0.2 | 1.23 ± 0.4 | 1.24 ± 0.15 | 1.03 ± 0.054 | 1.05 ± 0.22 | 0.77 ± 0.042 | 0.795 ± 0.081 | 1.42 ± 0.35
MFM223 BREAST | 1.18 ± 0.021 | 1.16 ± 0.048 | 1.23 ± 0.08 | 1.23 ± 0.13 | 1.14 ± 0.081 | 1.06 ± 0.13 | 0.742 ± 0.08 | 1.13 ± 0.02 | 1.14 ± 0.1 | 1.13 ± 0.041 | 1.09 ± 0.085 | 0.87 ± 0.029 | 0.787 ± 0.037 | 0.748 ± 0.052 | 0.712 ± 0.025 | 1.15 ± 0.047
MDAMB134 BREAST | 1.04 ± 0.067 | 1.26 ± 0.12 | 1.06 ± 0.033 | 1.06 ± 0.053 | 1.14 ± 0.091 | 1.21 ± 0.18 |  | 0.96 ± 0.055 | 1.04 ± 0.17 | 1.04 ± 0.13 | 1.05 ± 0.03 | 0.971 ± 0.21 | 0.738 ± 0.042 | 0.8595 ± 0.0035 | 0.823 ± 0.028 | 1.02 ± 0.031
NCIH441 LUNG | 1.12 ± 0.014 | 1.07 ± 0.028 | 1.12 ± 0.12 | 0.992 ± 0.023 | 0.99 ± 0.12 | 0.927 ± 0.04 | 0.834 ± 0.016 | 1.02 ± 0.14 | 1.11 ± 0.052 | 0.998 ± 0.034 | 1.06 ± 0.068 | 1.02 ± 0.042 | 0.98 ± 0.037 | 0.98 ± 0.064 | 1.01 ± 0.042 | 0.967 ± 0.042
